ChEMBL document CHEMBL3272170, “Potential antitumor agents. 24. Dicationic analogues of the 4'-(9-acridinylamino)alkanesulfonanilides” (J Med Chem, 1977)

Columns and labels:
in vivo [1] = conditions: C3H X DBA2 F1, mouse, ip
Description: Toxicity in ip dosed C3H X DBA2 F1 mouse allografted with mouse L1210 cells through ip

in vivo [2] = conditions: C3H X DBA2 F1, mouse, ip; remark: listed apart in the source
Description: Toxicity in ip dosed C3H X DBA2 F1 mouse allografted with mouse L1210 cells through sc

Description for physchem: Ionization constant, pKa of the compound by UV spectrophotometric analysis

pKa (physchem)	SMILES	MTD (in vivo [1]) [mg/kg/day]	MTD (in vivo [2]) [mg/kg/day]
6.89	NCCCS(=O)(=O)Nc1ccc(Nc2c3ccccc3nc3ccccc23)cc1	–	–
6.91	NCCCCS(=O)(=O)Nc1ccc(Nc2c3ccccc3nc3ccccc23)cc1	–	–
5.25	NCCS(=O)(=O)Nc1ccc(Nc2c3ccccc3nc3cc([N+](=O)[O-])ccc23)cc1	–	–
5.34	NCCCCS(=O)(=O)Nc1ccc(Nc2c3ccccc3nc3cc([N+](=O)[O-])ccc23)cc1	–	–
5.36	NCCCCCCCS(=O)(=O)Nc1ccc(Nc2c3ccccc3nc3cc([N+](=O)[O-])ccc23)cc1	–	–
6.72	C[n+]1c2ccccc2c(Nc2ccc(NS(=O)(=O)CCCCN)cc2)c2ccccc21	–	–
5.52	Cc1ccc2c(Nc3ccc(NS(=O)(=O)CCCCN)cc3)c3ccc([N+](=O)[O-])cc3nc2c1C	–	–
6.9	NCC(=O)NCCS(=O)(=O)Nc1ccc(Nc2c3ccccc3nc3ccccc23)cc1	–	–
6.7	C[n+]1c2ccccc2c(Nc2ccc(NS(=O)(=O)CCNC(=O)CCN)cc2)c2ccccc21	–	–
5.34	NCC(=O)NCCS(=O)(=O)Nc1ccc(Nc2c3ccccc3nc3cc([N+](=O)[O-])ccc23)cc1	–	–
5.35	NCCC(=O)NCCS(=O)(=O)Nc1ccc(Nc2c3ccccc3nc3cc([N+](=O)[O-])ccc23)cc1	–	–
5.36	N=C(N)NCCCCS(=O)(=O)Nc1ccc(Nc2c3ccccc3nc3cc([N+](=O)[O-])ccc23)cc1	–	–
6.41	Cc1cccc2c(Nc3ccc(NS(=O)(=O)CCCCNC(=N)N)cc3)c3cccc(C)c3nc12	–	–
3.68	N=C(N)NCCCS(=O)(=O)Nc1ccc(Nc2c3ccc([N+](=O)[O-])cc3nc3cc([N+](=O)[O-])ccc23)cc1	–	–
9.6	Nc1c2ccccc2nc2ccccc12 [AMINACRINE]	–	–

More lines, now with the values behind:

SMILES	pKa (physchem)	MTD (in vivo [1]) [mg/kg/day]	MTD (in vivo [2]) [mg/kg/day]
N=C(N)NCCCS(=O)(=O)Nc1ccc(Nc2c3ccccc3nc3cc([N+](=O)[O-])ccc23)cc1	5.34	–	–
C[n+]1c2ccccc2c(Nc2ccc(NS(C)(=O)=O)cc2)c2ccc(N)cc21	10.1	–	–
Cl.NCCS(=O)(=O)Nc1ccc(Nc2c3ccccc3nc3ccccc23)cc1	6.62	35	–
Cl.NCCCCCS(=O)(=O)Nc1ccc(Nc2c3ccccc3nc3ccccc23)cc1	6.92	60	–
Cl.NCCCCCCS(=O)(=O)Nc1ccc(Nc2c3ccccc3nc3ccccc23)cc1	6.92	65	–
Cl.NCCCS(=O)(=O)Nc1ccc(Nc2c3ccccc3nc3cc([N+](=O)[O-])ccc23)cc1	5.33	–	20
Cl.NCCCCCS(=O)(=O)Nc1ccc(Nc2c3ccccc3nc3cc([N+](=O)[O-])ccc23)cc1	5.36	–	44
Cl.NCCCCCCS(=O)(=O)Nc1ccc(Nc2c3ccccc3nc3cc([N+](=O)[O-])ccc23)cc1	5.34	–	2
Cl.NCCCCCCCCS(=O)(=O)Nc1ccc(Nc2c3ccccc3nc3cc([N+](=O)[O-])ccc23)cc1	5.35	30	–
COc1cc(NS(=O)(=O)CCCCN)ccc1Nc1c2ccccc2nc2cc([N+](=O)[O-])ccc12	5.58	–	–
CN(C)CCCCS(=O)(=O)Nc1ccc(Nc2c3ccccc3nc3cc([N+](=O)[O-])ccc23)cc1.Cl	5.36	–	10
CC(=O)Nc1ccc2c(Nc3ccc(NS(=O)(=O)CCCCN)cc3)c3ccccc3nc2c1	7.16	–	–
Cc1cccc2c(Nc3ccc(NS(=O)(=O)CCCCN)cc3)c3ccc([N+](=O)[O-])cc3nc12.Cl	5.44	200	–
NCCC(=O)NCCS(=O)(=O)Nc1ccc(Nc2c3ccccc3nc3ccccc23)cc1	6.91	–	–
N=C(N)NCCS(=O)(=O)Nc1ccc(Nc2c3ccccc3nc3cc([N+](=O)[O-])ccc23)cc1	5.26	–	–
N=C(N)NCCCCCS(=O)(=O)Nc1ccc(Nc2c3ccccc3nc3cc([N+](=O)[O-])ccc23)cc1	5.36	–	–
N=C(N)NCCCCCCS(=O)(=O)Nc1ccc(Nc2c3ccccc3nc3cc([N+](=O)[O-])ccc23)cc1	5.35	–	–
Cl.N=C(N)NCCCCS(=O)(=O)Nc1ccc(Nc2c3ccccc3nc3ccccc23)cc1	6.91	75	–
Cl.N=C(N)NCCCCS(=O)(=O)Nc1ccc(Nc2c3ccccc3nc3cc(Cl)ccc23)cc1	6.33	150	–
C[n+]1c2ccccc2c(Nc2ccc(NS(=O)(=O)CCCCNC(=N)N)cc2)c2ccccc21.[Br-]	6.69	150	–
CC(=O)Nc1ccc2c(Nc3ccc(NS(=O)(=O)CCNC(=N)N)cc3)c3ccc([N+](=O)[O-])cc3nc2c1	5.55	–	–
CC(=O)Nc1ccc2c(Nc3ccc(NS(=O)(=O)CCCNC(=N)N)cc3)c3ccc([N+](=O)[O-])cc3nc2c1	5.58	–	–
CS(=O)(=O)Nc1ccc(Nc2c3ccccc3nc3ccccc23)cc1	7.19	–	–
